Test results reported in the NIST ThermoML archive (doi:10.1021/je020115d).
± gives the expanded uncertainty stated by the source.

Conditions: Liquid

FCF [difluoromethane]
Conditions | vapor or sublimation pressure [kPa]
283.19 K | 1111 ± 2
288.21 K | 1286 ± 2
293.24 K | 1481 ± 3
298.26 K | 1697 ± 3
303.27 K | 1935 ± 3
308.28 K | 2197 ± 4
313.3 K | 2485 ± 4
318.28 K | 2801 ± 5
323.3 K | 3147 ± 5
328.31 K | 3526 ± 6
343.26 K | 4892 ± 8

CCC [propane]
Conditions | vapor or sublimation pressure [kPa]
277.17 K | 536 ± 1
283.22 K | 638 ± 2
288.26 K | 734 ± 2
293.27 K | 838 ± 2
298.3 K | 955 ± 2
302.27 K | 1055 ± 2
308.8 K | 1236 ± 2
311.8 K | 1326 ± 2
313.24 K | 1370 ± 2
318.22 K | 1537 ± 3
323.22 K | 1716 ± 3
328.26 K | 1911 ± 3
333.29 K | 2120 ± 3
338.31 K | 2346 ± 4
343.26 K | 2591 ± 4
348.31 K | 2852 ± 5
353.41 K | 3134 ± 5
